The subject of assay [1] is Escherichia coli. Nature of the assay: microbe, parasite or virus in culture. The note with it: ATCC 25922, 18 h, ASSAY_TEST Inhibition of Bacterial Growth, detection method Absorption (OD600), MEDIA CAMHB, plate type 384well, NBS, CORNING #3640.
Description: (§1) Antibacterial activity against Escherichia coli ATCC 25922 (CO-ADD:GN_001); MIC in CAMBH media using NBS plates, by OD(600)
Another assay relates to HEK293. The assay is described as follows: cells. The assay is classed as functional. The note with it: Homo sapiens, ATCC CRL1573, HEK293; ASSAY_TEST Inhibition of Cell Viability; detection method Resazurin; Fluorescence (ex560/em590); MEDIA DMEM with 10% FBS; plate type 384well; TC; CORNING #3712; time 18 hr.
The subject of assay [2] is Staphylococcus aureus. Nature of the assay: microbe, parasite or virus in culture. The note with it: ATCC 43300, 18 h, ASSAY_TEST Inhibition of Bacterial Growth, detection method Absorption (OD600), MEDIA CAMHB, plate type 384well, NBS, CORNING #3640.
Description: (§2) Antibacterial activity against Staphylococcus aureus MRSA ATCC 43300 (CO-ADD:GP_020); MIC in CAMBH media, using NBS plates, by OD(600)
Assay [3] concerns Klebsiella pneumoniae. The assay is described as follows: microbe, parasite or virus in culture. The note with it: ATCC 700603, 18 h, ASSAY_TEST Inhibition of Bacterial Growth, detection method Absorption (OD600), MEDIA CAMHB, plate type 384well, NBS, CORNING #3640.
Description: (§3) Antibacterial activity against Klebsiella pneumoniae MDR ATCC 70063 (CO-ADD:GN_003); MIC in CAMBH media using NBS plates, by OD(600)
Assay [4] concerns Candida albicans. Nature of the assay: microbe, parasite or virus in culture. The conditions noted are these: ATCC 90028, ASSAY_TEST Inhibition of Fungal Growth, detection method Absorption (OD530), plate type 384well, NBS, CORNING #3640.
Description: (§4) Antifungal activity against Candida albicans ATCC 90028 (CO-ADD:FG_001); MIC in YNB media using NBS plates, by OD630
The test system of assay [5] is Acinetobacter baumannii. The assay is described as follows: microbe, parasite or virus in culture. The note with it: ATCC 19606, 18 h, ASSAY_TEST Inhibition of Bacterial Growth, detection method Absorption (OD600), MEDIA CAMHB, plate type 384well, NBS, CORNING #3640.
Description: (§5) Antibacterial activity against Acinetobacter baumannii ATCC 19606 (CO-ADD:GN_034); MIC in CAMBH media using NBS plates, by OD600
In assay [6] the test system is Pseudomonas aeruginosa. Nature of the assay: microbe, parasite or virus in culture. The conditions noted are these: ATCC 27853, 18 h, ASSAY_TEST Inhibition of Bacterial Growth, detection method Absorption (OD600), MEDIA CAMHB, plate type 384well, NBS, CORNING #3640.
Description: (§6) Antibacterial activity against Pseudomonas aeruginosa ATCC 27853 (CO-ADD:GN_042); MIC in CAMBH media using NBS plates, by OD(600)
Assay [7] deals with Klebsiella pneumoniae. The note with it: ASSAY_TEST Inhibition of Bacterial Growth; detection method Absorption (OD600); MEDIA CAMHB; plate type 384well; NBS; CORNING #3640; time 18 hr.
Description: as §3
Assay [8] deals with Escherichia coli. The conditions noted are these: ASSAY_TEST Inhibition of Bacterial Growth; detection method Absorption (OD600); MEDIA CAMHB; plate type 384well; NBS; CORNING #3640; time 18 hr.
Description: as §1
Assay [9] relates to Staphylococcus aureus. The conditions noted are these: ASSAY_TEST Inhibition of Bacterial Growth; detection method Absorption (OD600); MEDIA CAMHB; plate type 384well; NBS; CORNING #3640; time 18 hr.
Description: as §2
Assay [10] relates to Candida albicans. The conditions noted are these: ASSAY_TEST Inhibition of Fungal Growth; detection method Absorption (OD530); plate type 384well; NBS; CORNING #3640.
Description: as §4
In assay [11] the test system is Pseudomonas aeruginosa. The note with it: ASSAY_TEST Inhibition of Bacterial Growth; detection method Absorption (OD600); MEDIA CAMHB; plate type 384well; NBS; CORNING #3640; time 18 hr.
Description: as §6
For assay [12], the system named is Acinetobacter baumannii. The note with it: ASSAY_TEST Inhibition of Bacterial Growth; detection method Absorption (OD600); MEDIA CAMHB; plate type 384well; NBS; CORNING #3640; time 18 hr.
Description: as §5

Results on 17 compounds are retold here after ChEMBL document CHEMBL4513149, “CO-ADD screening of MMV (CH) - MMV compounds” (2021).

A word on the CC50: it is the concentration giving 50% cytotoxicity. Lower therefore signals harm at low concentration.

Structures are written as SMILES. Values after ≈ are worked out from the molar mass of the structure shown. Where a name gives a salt, the structure may show the parent alone.

Description for Cryptococcus neoformans: Antifungal activity against Cryptococcus neoformans H99 ATCC 208821 (CO-ADD:FG_002); MIC in YNB media using NBS plates, by Resazurin OD(600-570)

For `CO[C@H]1/C=C/O[C@@]2(C)Oc3c(C)c(O)c4c(O)c(/c(=C/NN5CCN(C)CC5)c(O)c4c3C2=O)=N\C(=O)/C(C)=C\C=C/[C@H](C)[C@H](O)[C@@H](C)[C@@H](O)[C@@H](C)[C@H](OC(C)=O)[C@@H]1C`, the MIC against Escherichia coli [1] is 10 µM (≈ 8.23 µg/mL); with Cryptococcus neoformans it was > 10 µM; against Staphylococcus aureus [2], ≤ 0.0781 µM; against Klebsiella pneumoniae [3] it was > 10 µM; in the assay on Candida albicans [4] it was > 10 µM; with Acinetobacter baumannii [5], > 10 µM. In addition, in the assay on Pseudomonas aeruginosa [6], the MIC turned out to be 5 µM (≈ 4.11 µg/mL). Besides, the CC50 in the assay with HEK293 was > 10 µM.

Consider `FC(F)(F)c1cnc(Sc2nnc(-c3ccncc3)o2)c(Cl)c1`, for which the MIC was > 10 µM against Escherichia coli [1]; > 10 µM against Cryptococcus neoformans; 10 µM (≈ 3.59 µg/mL) against Staphylococcus aureus [2]; > 10 µM against Klebsiella pneumoniae [3]; > 10 µM against Candida albicans [4]; > 10 µM against Acinetobacter baumannii [5]. For the same compound, the MIC with Pseudomonas aeruginosa [6] is > 10 µM. Further, in the assay with HEK293, the CC50 was > 10 µM.

Turning to `C[C@@H]1[C@H](O)[C@@H](C)/C=C/C=C/C=C/C=C/C=C/C=C/C=C/[C@H](O[C@@H]2O[C@H](C)[C@@H](O)[C@H](N)[C@@H]2O)C[C@@H]2O[C@](O)(C[C@@H](O)C[C@@H](O)[C@H](O)CC[C@@H](O)C[C@@H](O)CC(=O)O[C@H]1C)C[C@H](O)[C@H]2C(=O)O` [AMPHOTERICIN B], the MIC with Escherichia coli [1], against Cryptococcus neoformans, with Staphylococcus aureus [2], with Klebsiella pneumoniae [3], against Candida albicans [4] and with Acinetobacter baumannii [5] was > 10 µM throughout. Moreover, in the assay with Pseudomonas aeruginosa [6], the MIC is > 10 µM. Also, in the assay with HEK293, the CC50 was > 10 µM.

Take `CO/C=C(/C(=O)OC)c1ccccc1Oc1cc(Oc2ccccc2C#N)ncn1` [AZOXYSTROBIN]: the MIC in the assay with Escherichia coli [1] is > 10 µM; against Cryptococcus neoformans it was > 10 µM; in the assay on Staphylococcus aureus [2], > 10 µM; against Klebsiella pneumoniae [3] it was > 10 µM; in the assay on Candida albicans [4], 0.625 µM (≈ 0.252 µg/mL); in the assay with Acinetobacter baumannii [5], > 10 µM. Besides, the MIC with Pseudomonas aeruginosa [6] is > 10 µM. Further, in the assay on HEK293, the CC50 was > 10 µM.

In the case of `CC(C)(C)C(O)C(Oc1ccc(-c2ccccc2)cc1)n1cncn1` (stereo unspecified) [BITERTANOL], the MIC against Escherichia coli [1] was > 10 µM; in the assay on Cryptococcus neoformans, 1.25 µM (≈ 0.422 µg/mL); in the assay on Staphylococcus aureus [2], > 10 µM; in the assay on Klebsiella pneumoniae [3], > 10 µM; with Candida albicans [4], 5 µM (≈ 1.69 µg/mL); in the assay with Acinetobacter baumannii [5], > 10 µM. Also, in the assay with Pseudomonas aeruginosa [6], the MIC was > 10 µM. For the same compound, in the assay with HEK293, the CC50 is > 10 µM.

As to `CC(C)(C)[C@H]1CC[C@H](CC2=C(O)C(=O)c3ccccc3C2=O)CC1` [BUPARVAQUONE], the MIC in the assay on Escherichia coli [1], against Cryptococcus neoformans, in the assay with Staphylococcus aureus [2], against Klebsiella pneumoniae [3], against Candida albicans [4] and in the assay with Acinetobacter baumannii [5] was > 10 µM throughout. For the same compound, the MIC in the assay on Pseudomonas aeruginosa [6] was > 10 µM. Besides, the CC50 with HEK293 is > 10 µM.

Turning to `CC1COC(Cn2cncn2)(c2ccc(Oc3ccc(Cl)cc3)cc2Cl)O1` (stereo unspecified) [DIFENOCONAZOLE], the MIC against Escherichia coli [1] is > 10 µM; against Cryptococcus neoformans, 0.625 µM (≈ 0.254 µg/mL); against Staphylococcus aureus [2], > 10 µM; with Klebsiella pneumoniae [3], > 10 µM; against Candida albicans [4] it was 0.625 µM (≈ 0.254 µg/mL); against Acinetobacter baumannii [5] it was > 10 µM. Besides, the MIC against Pseudomonas aeruginosa [6] is > 10 µM. For the same compound, the CC50 with HEK293 is > 10 µM.

`C[C@H]1c2cccc(O)c2C(=O)C2=C(O)[C@]3(O)C(=O)C(C(N)=O)=C(O)[C@@H](N(C)C)[C@@H]3[C@@H](O)[C@@H]21` [DOXYCYCLINE HYDROCHLORIDE]: the MIC against Escherichia coli [1] was 1.25 µM; in the assay on Cryptococcus neoformans, > 10 µM; against Staphylococcus aureus [2] it was 0.156 µM; against Klebsiella pneumoniae [3], > 10 µM; with Candida albicans [4], > 10 µM; in the assay with Acinetobacter baumannii [5] it was > 10 µM. In the assay with Pseudomonas aeruginosa [6], this compound showed an MIC of 0.156 µM. Besides, the CC50 in the assay with HEK293 was > 10 µM.

As to `Oc1c(I)cc(I)c2cccnc12` [IODOQUINOL], the MIC in the assay with Escherichia coli [1], against Cryptococcus neoformans, against Staphylococcus aureus [2], in the assay with Klebsiella pneumoniae [3], against Candida albicans [4] and in the assay with Acinetobacter baumannii [5] was > 10 µM in each case. Also, the MIC against Pseudomonas aeruginosa [6] was > 10 µM. Moreover, the CC50 with HEK293 was > 10 µM.

Take `C[C@H]1COc2c(N3CCN(C)CC3)c(F)cc3c(=O)c(C(=O)O)cn1c23.C[C@H]1COc2c(N3CCN(C)CC3)c(F)cc3c(=O)c(C(=O)O)cn1c23.O` [LEVOFLOXACIN]: the MIC against Klebsiella pneumoniae [7] is 2.5 µM; with Cryptococcus neoformans it was > 10 µM; in the assay with Escherichia coli [8], “<=0.0781 uM”; in the assay on Staphylococcus aureus [9], 0.625 µM; against Candida albicans [10], >10 µM; in the assay with Pseudomonas aeruginosa [11] it was 0.625 µM. In addition, in the assay on Acinetobacter baumannii [12], the MIC was found to be 2.5 µM. Also, the CC50 with HEK293 is > 10 µM.

As for `COC(=O)Nc1nc2cc(C(=O)c3ccccc3)ccc2[nH]1` [MEBENDAZOLE], the MIC with Escherichia coli [1], in the assay with Cryptococcus neoformans, with Staphylococcus aureus [2], against Klebsiella pneumoniae [3], with Candida albicans [4] and with Acinetobacter baumannii [5] was > 10 µM in each case. Moreover, the MIC against Pseudomonas aeruginosa [6] is > 10 µM. Further, in the assay with HEK293, the cytotoxic concentration (CC50) is > 10 µM.

As for `CCCCCCCCCCCCCCCCOP(=O)([O-])OCC[N+](C)(C)C` [MILTEFOSINE], the MIC in the assay with Escherichia coli [1], against Cryptococcus neoformans, against Staphylococcus aureus [2], against Klebsiella pneumoniae [3], with Candida albicans [4] and against Acinetobacter baumannii [5] was > 10 µM throughout. Moreover, in the assay on Pseudomonas aeruginosa [6], the MIC was > 10 µM. Moreover, the CC50 in the assay on HEK293 was > 10 µM.

Turning to `N=C(N)c1ccc(OCCCCCOc2ccc(C(=N)N)cc2)cc1` [PENTAMIDINE ISETHIONATE], the MIC is > 10 µM in the assay on Escherichia coli [1]; > 10 µM in the assay on Cryptococcus neoformans; > 10 µM in the assay with Staphylococcus aureus [2]; > 10 µM with Klebsiella pneumoniae [3]; 0.312 µM in the assay with Candida albicans [4]; > 10 µM with Acinetobacter baumannii [5]. Moreover, the MIC against Pseudomonas aeruginosa [6] is > 10 µM. In addition, the CC50 in the assay with HEK293 was > 10 µM.

Turning to `CC[C@@H]([C@H](C)O)n1ncn(-c2ccc(N3CCN(c4ccc(OC[C@@H]5CO[C@@](Cn6cncn6)(c6ccc(F)cc6F)C5)cc4)CC3)cc2)c1=O` [POSACONAZOLE], the MIC with Escherichia coli [1] is > 10 µM; with Cryptococcus neoformans, 1.25 µM (≈ 0.876 µg/mL); in the assay with Staphylococcus aureus [2], > 10 µM; with Klebsiella pneumoniae [3] it was > 10 µM; with Candida albicans [4] it was 0.156 µM (≈ 0.11 µg/mL); in the assay on Acinetobacter baumannii [5], > 10 µM. Moreover, the MIC with Pseudomonas aeruginosa [6] was > 10 µM. In addition, the CC50 in the assay with HEK293 is > 10 µM.

With `COc1cc(NC(C)CCCN)c2ncccc2c1.O=P(O)(O)O.O=P(O)(O)O` (stereo unspecified) [PRIMAQUINE PHOSPHATE], the MIC against Klebsiella pneumoniae [7] was >10 µM; against Cryptococcus neoformans, > 10 µM; in the assay on Escherichia coli [8], >10 µM; in the assay on Staphylococcus aureus [9], 10 µM; in the assay with Candida albicans [10] it was >10 µM; in the assay with Pseudomonas aeruginosa [11], >10 µM. Besides, the MIC in the assay with Acinetobacter baumannii [12] is >10 µM. In the assay on HEK293, the CC50 was > 10 µM.

Regarding `CC(=O)NC[C@H]1CN(c2ccc(N3CCSCC3)c(F)c2)C(=O)O1` [SUTEZOLID], the MIC is > 10 µM in the assay on Escherichia coli [1]; > 10 µM with Cryptococcus neoformans; 5 µM (≈ 1.77 µg/mL) with Staphylococcus aureus [2]; > 10 µM in the assay with Klebsiella pneumoniae [3]; > 10 µM against Candida albicans [4]; > 10 µM with Acinetobacter baumannii [5]. For the same compound, the MIC in the assay on Pseudomonas aeruginosa [6] was > 10 µM. Further, the CC50 in the assay with HEK293 is > 10 µM.

Take `CCc1nn(C)c(C(=O)NCc2ccc(Oc3ccc(C)cc3)cc2)c1Cl` [TOLFENPYRAD]: the MIC in the assay on Escherichia coli [1] is > 10 µM; in the assay with Cryptococcus neoformans, 10 µM (≈ 3.84 µg/mL); against Staphylococcus aureus [2], > 10 µM; with Klebsiella pneumoniae [3], > 10 µM; with Candida albicans [4], > 10 µM; against Acinetobacter baumannii [5], > 10 µM. In the assay on Pseudomonas aeruginosa [6], the MIC was > 10 µM. In addition, in the assay on HEK293, the CC50 is > 10 µM.
